In brackets after ≈: the same amount, converted by molar mass. A value given as a limit tells only on which side of the number the result lay.

What all share (type): physicochemical
Data set [1] in a line: Solubility assessment of Form C in saline physiological solution (HPLC). How it is done: The Form C solubility was calculated by HPLC employing a dedicated walk-up method. The product obtained by the scaled up procedure described in Example 13 was used to perform the experiments.
1.9 g of the product was suspended in 1 ml of commercial physiologic solution (0.9% of NaCl) at ambient temperature (˜20 ° C.). The suspension resulted slightly opaque and quite viscous after 30 min. After this time the suspension was sampled and the sample injected in HPLC to determine its concentration. After 2 hrs stirring the solid residue was completely dissolved. The addition of more solid was not performed to avoid the gelatinisation of the viscous solution. A sample was taken and injected in HPLC to determine its concentration. The solution was stirred other 3 hrs and sampled again. The 5 hrs sample was also injected in HPLC to determine its concentration.

The nature of data set [2]: Hygroscopicity of Form F (% weight change at 25° C. and 80% RH). Here is the method: The hygroscopicity was calculated using the following equation: % Weight Change=[(W2−W1)W1]*100 wherein, • W1 is weight of sample at the start of the experiment; and • W2 is weight of sample at 25° C. and 80% RH in the first absorption cycle.
The nature of data set [3]: Dynamic Vapor Sorption (DVS) of Form F. The settings on record: 25° C. How it is done: Kinetic moisture sorption measurements were performed at 25° C. and at relative humidity (RH % target as follows: • From 40% RH to 90% RH • Form 90% RH to 0% RH • From 0% RH to 90% RH • From 90% RH to 0% RH The kinetic moisture sorption measurement was performed at 25° C. and in a RH % range described in the following: • From 40% RH to 90% RH • Form 90% RH to 0% RH • From 0% RH to 90% RH • From 90% RH to 0% RH The experiment is performed on 10-15 mg of sample and the equilibrium criterion is set as dm/dt<0.002% w/w in 10 min with a maximum step time of 240 min.

The nature of data set [4]: Stability tests of Form F stored at controlled temperature and RH.
A short description of data set [5]: Inventors' findings on hygroscopicity and stability of amorphous versus crystalline compound of formula (I).
Data set [6] in a line: Solubility of amorphous compound of formula (I) in selected solvents (slurry stirred 4 hours, mother liquor by HPLC). The settings on record: thermodynamic from solid. How it is done:
Solubility values of solvents were calculated with respect to the HPLC response factor, set out in FIG. 12.
HPLC response factor was calculated for the amorphous compound of formula (I) using samples dissolved in acetonitrile/water 9/1 with the following method: • Column: ZORBAX Eclipse XDB-C18 (150×4.6 mm, 5 μm) • Temperature: 25° C. • Mobile phase: A: 0.05M Sodium ortophosphate/water, B: Acetonitrile • Gradient: from 5% of B to 95% of B in 10 min • Detector: UV λ=220 nm
Slurries of the amorphous compound of formula (I) in the selected solvents were prepared and stirred at 20° C. and 40° C. for 4 hours. • Samples of each slurry were filtered and the mother liquors injected in HPLC. • The solid residual were isolated and analyzed by XRPD. • The results are summarized in the following Table 4.

The mark [7] stands for this setting: 25° C. and 80% RH, first absorption cycle.

As to `C[n+]1ccn(C[C@@]2(C)[C@H](C(=O)[O-])N3C(=O)C[C@H]3S2(=O)=O)n1` [Form C, (2S,3S,5R)-3-methyl-3-((3-methyl-1H-1,2,3-triazol-3-ium-1-yl)methyl)-7-oxo-4-thia-1-azabicyclo[3.2.0]heptane-2-carboxylate 4,4-dioxide], the “Formation of impurities in physiologic solution (HPLC traces)” value in data set [1] (0.9% NaCl, ambient temperature, up to 5 hrs) is “did not show the formation of significant impurities”. The solubility at 30 min in data set [1] (physiologic solution (0.9% NaCl), saline or isotonic, thermodynamic from solid, physiologic solution (0.9% of NaCl), ~20 ° C., timepoint 30 mins, read-out: Solubility (mg/ml) at ambient temperature) came out at 772 mg/mL (≈ 2460 mM). Further, the solubility at 2 h in data set [1] (physiologic solution (0.9% NaCl), saline or isotonic, thermodynamic from solid, physiologic solution (0.9% of NaCl), ~20 ° C., timepoint 2 hours, solid completely dissolved, read-out: Solubility (mg/ml) at ambient temperature) is over 883 mg/mL. For the same molecule, in data set [1] (physiologic solution (0.9% NaCl), saline or isotonic, thermodynamic from solid, physiologic solution (0.9% of NaCl), ~20 ° C., timepoint 5 hours, read-out: Solubility (mg/ml) at ambient temperature), the solubility at 5 h is over 812 mg/mL.

Consider `C[n+]1ccn(C[C@@]2(C)[C@H](C(=O)[O-])N3C(=O)C[C@H]3S2(=O)=O)n1` [Form F, (2S,3S,5R)-3-methyl-3-((3-methyl-1H-1,2,3-triazol-3-ium-1-yl)methyl)-7-oxo-4-thia-1-azabicyclo[3.2.0]heptane-2-carboxylate 4,4-dioxide], for which the Hygroscopicity classification result in data set [2] (setting [7]) is recorded as “very hygroscopic”. The “Mass increase (% Weight Change)” value in data set [2] (setting [7]) is reported as “greater than 15%”. For the same molecule, the “Appearance at high humidity” value in data set [2] (high humidity) is reported as “becomes a viscous liquid”. Also, the “Relative humidity up to which the form is stable (DVS)” value in data set [3] is recorded as “approximately 50 % RH”. Further, the “Weight increase (DVS)” value in data set [3] (at 90% RH) is listed as “greater than 50 % w/w”. Further, the “Water sorption behaviour after the weight increase at 90% RH (DVS)” value in data set [3] (following cycles) was “releases and takes water reversibly”. Besides, the “Stability on storage (appearance)” value in data set [4] (after a day at 25° C. and 60% RH) is “becomes a viscous liquid”; in data set [4] (after a day at 60° C. and 75% RH), “becomes a viscous liquid”.

`C[n+]1ccn(C[C@@]2(C)[C@H](C(=O)[O-])N3C(=O)C[C@H]3S2(=O)=O)n1` [amorphous compound of formula (I), (2S,3S,5R)-3-methyl-3-((3-methyl-1H-1,2,3-triazol-3-ium-1-yl)methyl)-7-oxo-4-thia-1-azabicyclo[3.2.0]heptane-2-carboxylate 4,4-dioxide]: in data set [5], the “Hygroscopicity (statement in words)” value was “hygroscopic”. Also, the Stability when stored result in data set [5] (stored at room temperature) is “limited stability”. The solubility at 4 h in data set [6] (organic solvent or mixture, 1-butanol, 20° C.) is 97 mg/mL; in data set [6] (organic solvent or mixture, 1-butanol, 40° C.), 167 mg/mL; in data set [6] (organic solvent or mixture, 1-propanol, 20° C.) it was 295 mg/mL; in data set [6] (organic solvent or mixture, 1-propanol, 40° C.), over 400 mg/mL; in data set [6] (organic solvent or mixture, 2-propanol, 20° C.), 23 mg/mL; in data set [6] (organic solvent or mixture, 2-propanol, 40° C.), 28 mg/mL. Besides, the solubility at 4 h in data set [6] (organic solvent or mixture, Acetonitrile, 20° C.) was 6 mg/mL; in data set [6] (organic solvent or mixture, Dimethylsulfoxide, 20° C.) it was over 400 mg/mL; in data set [6] (organic solvent or mixture, Dimethylsulfoxide, 40° C.), over 400 mg/mL; in data set [6] (organic solvent or mixture, Ethanol, 20° C.) it was 420 mg/mL; in data set [6] (organic solvent or mixture, Ethanol, 40° C.) it was over 420 mg/mL; in data set [6] (organic solvent or mixture, Ethanol/acetone 20%, 20° C.), over 300 mg/mL. In addition, the solubility at 4 h was over 300 mg/mL in data set [6] (organic solvent or mixture, Ethanol/acetone 40%, 20° C.); 52 mg/mL in data set [6] (organic solvent or mixture, Ethanol/methyl tert-butyl ether 20%, 20° C.); 16 mg/mL in data set [6] (organic solvent or mixture, Ethanol/methyl tert-butyl ether 40%, 20° C.); over 400 mg/mL in data set [6] (organic solvent or mixture, Methanol, 20° C.); over 400 mg/mL in data set [6] (organic solvent or mixture, Methanol, 40° C.); over 400 mg/mL in data set [6] (Water, 20° C.). For the same molecule, in data set [6] (Water, 40° C.), the solubility at 4 h is over 400 mg/mL.

These data come from US11124526B2, “Crystalline beta-lactamase inhibitor” (Allecra Therapeutics SAS, priority 2013, dated 2021).
